Test results from US20250051391A1, “PEPTIDE INHIBITORS AND METHODS FOR INHIBITING PROTEIN AGGREGATION IN NEURONS AND NEURODEGENERATIVE DISEASES” (THE GOVERNING COUNCIL OF THE UNIVERSITY OF TORONTO, priority 2021, published 2025).
Ends that are not written are not given here.

Columns and labels:
CHMP2B = biological target: T1, CHMP2B (Homo sapiens, UniProt Q9UQN3); assay: a-syn competition fluorescence polarization assay (FITC-Pdpep1.3 and CHMP2B); type: binding; details: 50 nM FITC-Pdpep1.3, 1 μM CHMP2B, a-syn titrated
T1 construct: against CHMP2B 1-199 truncation and CHMP2B full length; His tag (implied by Ni-NTA purification; pET-DEST42 vector); made in house; host or cells: E. coli Overexpress C41

CHMP2B-VPS4 interaction = biological target: T2, CHMP2B-VPS4 interaction (Homo sapiens, UniProt Q9UQN3); assay: Co-immunoprecipitation: disruption of VPS4B-CHMP2B interaction; type: cell-based; details: Flag-VPS4B, HA-tagged CHMP proteins, GFP-tagged peptides
T2 construct: expressed in transfected cells; host or cells: HEK293T
Procedure: HEK293T cells were co-transfected with Flag-tagged target protein, HA-tagged source protein, and GFP-tagged peptide or GFP. Cells were lysed 48 h after transfections with radioimmune precipitation assay buffer (50 mM Tris-HCl pH7.4, 1% Nonidet P-40, 150 mM NaCl, 1 mM EDTA, 10 mM Na3VO4, 10 mM sodium pyrophosphate, 25 mM NaF, 1× protease inhibitor mixture (Sigma)) for 30 min at 4° C. and coimmunoprecipitated with Flag beads (Clontech). The resulting immunocomplexes were analyzed by immunoblot using the appropriate antibodies. Protein samples were separated using 4-20% Mini-PROTEAN Tris-glycine gels (Bio-Rad) transferred to PVDF membranes and blocked in 5% milk containing PBS-Tween-20 (0.1%) for 1 h. PVDF membranes were then incubated with specified primary antibodies followed by incubation with horseradish peroxidase-conjugated secondary antibodies (Santa Cruz Biotechnology) and detected using enhanced chemiluminescence (GE Healthcare).

HEK293 cells = assay: Lysosome activity (lysosomal flux) assay in HEK293 cells; type: cell-based, human; details: HEK293 cells co-expressing A53T a-syn
Procedure: The Lysosome Intracellular Activity Assay kit was purchased from Abcam and used per manufacturer's instructions (ab234622). Briefly, cell medium was replaced with fresh medium containing DMSO, Leupeptin, or Bafilomycin A1 and incubated for 1 h at 37° C. with 5% CO2. Self-quenched substrate was added into each condition and incubated for 1 h (HEK293 cells) or overnight (SNCA triplication fibroblasts) at 37° C. with 5% CO2. After incubation, cells were washed twice in ice-cold 1× assay buffer containing DMSO, Leupeptin, or Bafilomycin A1. For HEK293 cells, cells were re-suspended in PBS containing DMSO or Leupeptin and analyzed by FACS. For fibroblasts, cells were incubated in PBS containing DMSO or Bafilomycin A1 and imaged by confocal microscopy.

[1] = system: rat substantia nigra dopaminergic neurons; assay: AAV A53T a-syn preclinical rat model of PD; type: in vivo
Procedure: Adult female Sprague-Dawley rats (250-280 g; Envigo) were pair-housed in cages with wood bedding and had access to food and water ad libitum. The animal colony was maintained in a regular 12-h light/dark cycle. All procedures were approved by the University Health Network Animal Care Committee in accordance with guidelines and regulations set by the Canadian Council on Animal Care.
Animals were secured in a stereotactic frame under isoflurane/oxygen anaesthesia and ketoprofen (5 mg/kg) analgesia. The surgical site was shaved and sterilized with iodine/betadine prior to making a 2 cm incision along the midline. The scalp was exposed and a unilateral injection targeting the SN was performed at coordinates AP−5.2 mm, ML−2 mm and DV−7.4 mm with respect to the bregma as a point of reference. For each animal, a total volume of 2 μl of virus was injected at a rate of 0.5 μl/min using a microinjection pump and 10 μl Hamilton syringe with a 26-gauge needle. For A53T groups, 1 μl (low dose) or 1.34 μl (high dose) of AAV1/2-A53T a-syn (5.1×10^12 genomic particles/ml), 0.14 μl of AAV1/2-Pdpep1.3-GFP or scramble1.3-GFP (5.1×10^12 genomic particles/ml) and 0.86 μl or 0.52 μl of sterile PBS was injected; for EV groups, 1 μl (low dose) or 1.34 μl (high dose) of AAV1/2-EV (5.1×10^12 genomic particles/ml) replaced AAV1/2-A53T. For V1S+SV2 groups, 0.58 μl of AAV1/2-V1S (1.1×10^12 genomic particles/ml), 0.58 μl of AAV1/2-SV2 (1.1×10^12 genomic particles/ml), 0.14 μl of AAV1/2-Pdpep1.3-RFP or scramble1.3-RFP (5.1×10^12 genomic particles/ml) and 0.7 μl of sterile PBS was injected; for the YFP groups, 1.16 μl of AAV1/2-YFP (1.1×10^12 genomic particles/ml), 0.14 μl of AAV1/2-Pdpep1.3-RFP or scramble1.3-RFP (5.1×10^12 genomic particles/ml) and 0.7 μl of sterile PBS was injected. At the end of virus injection, the needle remained in place for 5 minutes before gradual removal.
Spontaneous forepaw use was evaluated using the cylinder test 1 day prior to stereotactic AAV injection, at 21 days post-injection and at 41 days post-injection. Following overnight food restriction, individual rats with right paws marked black were placed into a glass cylinder in front of two mirrors and videos recorded. An observer blinded to treatment conditions later scored the videos by recording whether animals used their left or right forepaw to touch the inner glass surface upon rearing. A total of 5 min of video recording was scored and a minimum of 10 total touches was required for data inclusion (61).
Animals were uthanized by transcardial perfusion with heparinised saline under isoflurane/oxygen anaesthesia. Brains were then removed and the ventral part, including the ventral striatum, was snap frozen in liquid dry ice-cooled isopentane. A single 1 mm thick section of the ventral striatum was immediately cut, using a matrix, for high-performance liquid chromatography (HPLC) analysis of biogenic amines. The dorsal part, including the dorsal striatum, STN, and the SN, was immersion-fixed in 4% paraformaldehyde in 0.1M PBS for 2 days and cryo-protected in 30% sucrose in 0.1M PBS solution for another 3 days until the brains sank. For immunofluorescent staining, 40 μm coronal cryosections were then prepared using a sliding microtome (Leica Microsystems Inc.) and 6 series of sections were stored in cryoprotectant (30% glycerol, 30% ethylene glycol, 40% PBS) at −20° C. until use.
Immunofluorescence staining for a-syn, tyrosine hydroxylase and LAMP1 was performed by washing free-floating sections with PBS-T (0.2% Triton X-100) three times for 10 min each at room temperature. Sections were then incubated in blocking solution (1% BSA, 10% normal goat serum in PBS-T) for 1 h. After blocking, sections were incubated with primary antibodies in antibody solution (2% normal goat serum in PBS-T) overnight at RT. Sections were then washed in PBS and incubated with secondary antibodies diluted in antibody solution for 1 h in the dark at room temperature. […]

[2] = higher titer AAV-A53T a-syn, vs Scramble1.3 condition

T2 sequence (Q9UQN3 whole entry): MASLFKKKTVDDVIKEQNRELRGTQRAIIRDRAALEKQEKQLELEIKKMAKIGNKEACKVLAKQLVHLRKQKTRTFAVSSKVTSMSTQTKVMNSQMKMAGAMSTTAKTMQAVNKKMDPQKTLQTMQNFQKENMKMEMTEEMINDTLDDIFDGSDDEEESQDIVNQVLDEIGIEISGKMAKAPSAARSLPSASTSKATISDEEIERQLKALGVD
T1 sequence (Q9UQN3 whole entry, the tested form may be a part): as the sequence (Q9UQN3 whole entry) above

Q: How did the “competition with a-syn for binding to CHMP2B” value (CHMP2B) turn out when DEEIERQLKALG [PDpep1.3] was run?
A: competed for binding to CHMP2B

Q: And the “effect on CHMP2B-VPS4 interaction (co-immunoprecipitation)” value (CHMP2B-VPS4 interaction)?
A: disrupted the interaction between VPS4B and CHMP2B

Q: What about the “effect on CHMP2B-VPS4 interaction (co-immunoprecipitation)” value (CHMP2B-VPS4 interaction; listed as Pdpep1.3) of the same sequence?
A: inhibits the CHMP2B-VPS4 interaction

Q: What about the lysosomal flux (HEK293 cells) of the same sequence?
A: returned lysosomal flux to baseline

Q: What about the “forelimb asymmetry in the cylinder test” value ([1]; higher titer AAV-A53T a-syn, 6 weeks) of the same sequence?
A: comparable to controls

Q: What about the “dopaminergic neurodegeneration in the SN (TH+ cell counts)” value ([1]; higher titer AAV-A53T a-syn, 6 weeks post-injection) of the same sequence?
A: mitigated

Q: What about the “striatal levels of DOPAC” value [1, 2] of the same sequence?
A: restored

Q: And the “striatal levels of HVA” value [1, 2]?
A: restored

Q: And the “striatal levels of dopamine” value [1, 2]?
A: restored

Q: What about the “LAMP1-positive puncta in the SN” value ([1]; lower titer AAV-A53T a-syn) of the same sequence?
A: restored

Q: What about the “total a-syn positive area in the SN” value ([1]; lower titer AAV-A53T a-syn, vs Scramble1.3) of the same sequence?
A: significant reduction

Q: And the “a-syn mean fluorescence intensity in cells positive for TH and GFP” value ([1]; rats, low titer AAV-A53T a-syn, AAV-expressed GFP peptide)?
A: 0.335±0.025 RFU
